Test system: 485368-065-R4-J2-PDC spheroids with HUVEC/MSC, viability
Experiment: Anticancer human tumor 485368-065-R4-J2-PDC patient-derived pancreatic carcinoma cell line growth inhibition [CLK]
Details: for IC50: curve of first compound; for viability, T/C: stronger effect = lower value
Description: A high-throughput screen of multi-cell type tumor spheroids was designed to identify active combinations of […] and targeted small molecules. Complex spheroids include a stromal component modeled by human endothelial cells (HUVEC) and fibroblasts modeled by human mesenchymal stem cells (MSCs). The concentration ranges selected for each drug and investigational agent were based upon clinically achievable concentrations if the clinical Cmax of the agent was known.
Compounds. The drugs and investigational agents: cirtuvivint (SM08502; NSC835563), CC-671 (NSC850746), vemurafenib (NSC761431), tapotoclax (NSC804041), sotorasib (NSC818433), adagrasib (NSC831453), MRTX-1133 (NSC836407), BAY2416964 (NSC825713), copanlisib (NSC816437), inavolisib (NSC800729), abemaciclib (NSC768073), osimertinib (NSC779217), entinostat (NSC756642), eltanexor (KPT-8602, NSC794443), venetoclax (NSC766270), ceralasertib (NSC777638), bortezomib (NSC756655), olaparib (NSC753686), talazoparib (NSC767125), alisertib (NSC759677), peposertib (NSC802822), gemcitabine (NSC613327), 5-fluorouracil (NSC19893), SN-38 (NSC673596), oxaliplatin (NSC266046), paclitaxel (NSC125973), and doxorubicin (NSC123127), were obtained from the National Cancer Institute (NCI) Developmental Therapeutics Program Chemical Repository. The FDA-approved anticancer drug set is available from the Developmental Therapeutics Program at https://dtp.cancer.gov/organization/dscb/obtaining/available plates.htm. […] The stock solutions were prepared in dimethyl sulfoxide (DMSO, Sigma-Aldrich, St. Louis, MO, cat. D2650), except for the platinum complexes which were prepared in saline (Quality Biological, Gaithersburg, MD, cat. 114-055-101), at 800-fold the tested concentration and stored at -70 degrees C prior to their use. All drugs and investigational agents were tested over a range starting from a high concentration at or near the clinical Cmax and decreasing in half-log increments. If the clinical Cmax for an agent had not been determined, the highest concentration tested was 10 microM.
Cell Culture. All cells were maintained in an incubator at 37 degrees C and 5% CO2 with 95% humidity. The PDC lines were cultured according to standard operating procedures established by the NCI PDMR. Briefly, all PDCs were thawed and cultured in Matrigel-coated flasks prepared with a working solution of 1X Ham's F-12 nutrient mix, without supplementation (Invitrogen, Waltham, MA, cat. 11765054), 100 U/mL penicillin-streptomycin (Invitrogen, cat. 15140122), and 2.5% Matrigel (Corning Inc., Corning, NY, cat. 354248) for the first three passages. The 947758-054-R-J2-PDC line was cultured in 6B/Colon 1A media, which includes advanced DMEM/F-12 (Thermo Fisher Scientific, cat. 12634028), 10 mM HEPES (Thermo Fisher Scientific, cat. 15630080), 1X GlutaMAX supplement (Thermo Fisher Scientific, cat. 35050061), 0.1 mg/mL primocin (InvivoGen, cat. ant-pm-2), 10% defined fetal bovine serum, heat inactivated (HyClone Laboratories Inc., cat. SH30070.03HI), 1.25 mM N-Acetyl-L-cysteine (Sigma-Aldrich, cat. A9165), 10 mM nicotinamide (Sigma-Aldrich, cat. N0636), 1X B-27 supplement (Thermo Fisher Scientific, cat. 17504044), 1X N-2 supplement (Thermo Fisher Scientific, cat. 17502048), and 10 microM Y-27632 dihydrochloride (Tocris Bioscience, cat. 1254). The 876862-298-R-J1-PDC was cultured in 6E media, which includes all 6B/Colon 1A media components plus 50% L-WRN conditioned media (ATCC, cat. CRL-3276), 50 ng/mL recombinant human EGF recombinant protein (hEGF; Thermo Fisher Scientific, cat. PHG0311), 10 ng/mL recombinant human fibroblast growth factor 10 (hGFG-10; PeproTech, cat. 100-26), 1 ng/mL recombinant human fibroblast growth factor 2 (hFGF-2; PeproTech, cat. 100-18B), and 1 µM prostaglandin E2 (PGE2; Tocris, cat. 2296). The 227483-062-R1-J1-PDC line was cultured in Panc media, containing all 6E components except hFGF-2, with the addition of 500 nM SB-431542 (Selleckchem, cat. S1067) and 10 nM gastrin (Tocris, cat. 3006). […]

[1] = second compound 0.0316 µM, first compound 0.0316 µM
[2] = second compound 0.0316 µM, first compound 0.1 µM
[3] = second compound 0.0316 µM, first compound 0.316 µM
[4] = second compound 0.0316 µM, first compound 1 µM
[5] = second compound 0.0316 µM, first compound 3.16 µM
[6] = second compound 0.0316 µM, first compound 10 µM
[7] = second compound 0.1 µM, first compound 0.0316 µM
[8] = second compound 0.1 µM, first compound 0.1 µM
[9] = second compound 0.1 µM, first compound 0.316 µM
[10] = second compound 0.1 µM, first compound 1 µM
[11] = second compound 0.1 µM, first compound 3.16 µM
[12] = second compound 0.1 µM, first compound 10 µM
[13] = second compound 0.316 µM, first compound 0.0316 µM
[14] = second compound 0.316 µM, first compound 0.1 µM
[15] = second compound 0.316 µM, first compound 0.316 µM
[16] = second compound 0.316 µM, first compound 1 µM
[17] = second compound 0.316 µM, first compound 3.16 µM
[18] = second compound 0.316 µM, first compound 10 µM
[19] = second compound 1 µM, first compound 0.0316 µM
[20] = second compound 1 µM, first compound 0.1 µM
[21] = second compound 1 µM, first compound 0.316 µM
[22] = second compound 1 µM, first compound 1 µM
[23] = second compound 1 µM, first compound 3.16 µM
[24] = second compound 1 µM, first compound 10 µM
[25] = second compound 3.16 µM, first compound 0.0316 µM
[26] = second compound 3.16 µM, first compound 0.1 µM
[27] = second compound 3.16 µM, first compound 0.316 µM
[28] = second compound 3.16 µM, first compound 1 µM
[29] = second compound 3.16 µM, first compound 3.16 µM
[30] = second compound 3.16 µM, first compound 10 µM
[31] = second compound 10 µM, first compound 0.0316 µM
[32] = second compound 10 µM, first compound 0.1 µM
[33] = second compound 10 µM, first compound 0.316 µM
[34] = second compound 10 µM, first compound 1 µM
[35] = second compound 10 µM, first compound 3.16 µM
[36] = second compound 10 µM, first compound 10 µM
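Also: spheroids exposed to compounds for seven days.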
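For viability, T/C in this document: 100% = DMSO vehicle control wells.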

COc1ccc([C@@H](O)c2cc(-c3ncnc4cc(N5CCOCC5)ccc34)c(F)cc2Cl)nn1 + CN1CCN(c2cc(C(=O)Nc3cc4cc(-c5cnn(C)c5)ccc4cn3)ccn2)CC1
IC50 (second compound 0.0316 µM): > 10000 nM
IC50 (second compound 0.1 µM): > 10000 nM
IC50 (second compound 0.316 µM): 8180 nM
IC50 (second compound 1 µM): < 31.6 nM
IC50 (second compound 3.16 µM): < 31.6 nM
IC50 (second compound 10 µM): < 31.6 nM
viability, T/C [1]: 106%
viability, T/C [2]: 109%
viability, T/C [3]: 111%
viability, T/C [4]: 119%
viability, T/C [5]: 109%
viability, T/C [6]: 82%
viability, T/C [7]: 114%
viability, T/C [8]: 113%
viability, T/C [9]: 113%
viability, T/C [10]: 115%
viability, T/C [11]: 100%
viability, T/C [12]: 74.6%
viability, T/C [13]: 79%
viability, T/C [14]: 81.2%
viability, T/C [15]: 69.7%
viability, T/C [16]: 65%
viability, T/C [17]: 61.3%
viability, T/C [18]: 47.2%
viability, T/C [19]: 0.59%
viability, T/C [20]: 0.61%
viability, T/C [21]: 0.67%
viability, T/C [22]: 0.97%
viability, T/C [23]: 0.95%
viability, T/C [24]: 1.67%
viability, T/C [25]: 1.12%
viability, T/C [26]: 1.03%
viability, T/C [27]: 0.98%
viability, T/C [28]: 1.02%
viability, T/C [29]: 1.01%
viability, T/C [30]: 1.54%
viability, T/C [31]: 1.19%
viability, T/C [32]: 1.26%
viability, T/C [33]: 1.23%
viability, T/C [34]: 1.29%
viability, T/C [35]: 2.19%
viability, T/C [36]: 3.09%

Nc1ccn(C2OC(CO)C(O)C2(F)F)c(=O)n1 (stereo unspecified) + CNC(=O)c1ccc(Nc2nc(OC3CCCC3)c3c(-c4ccc5nc(C)oc5c4)c[nH]c3n2)c(OC)c1
IC50 (second compound 0.0316 µM): 73.2 nM
IC50 (second compound 0.1 µM): 65.3 nM
IC50 (second compound 0.316 µM): 49.3 nM
IC50 (second compound 1 µM): 43.2 nM
IC50 (second compound 3.16 µM): 34.3 nM
IC50 (second compound 10 µM): < 31.6 nM
viability, T/C [1]: 66.8%
viability, T/C [2]: 45%
viability, T/C [3]: 32.3%
viability, T/C [4]: 35.2%
viability, T/C [5]: 33.5%
viability, T/C [6]: 30.5%
viability, T/C [7]: 62.8%
viability, T/C [8]: 43.4%
viability, T/C [9]: 31.1%
viability, T/C [10]: 33.4%
viability, T/C [11]: 32.4%
viability, T/C [12]: 26.6%
viability, T/C [13]: 59.8%
viability, T/C [14]: 34%
viability, T/C [15]: 27.5%
viability, T/C [16]: 24.8%
viability, T/C [17]: 25.1%
viability, T/C [18]: 21.8%
viability, T/C [19]: 58%
viability, T/C [20]: 28.2%
viability, T/C [21]: 20.7%
viability, T/C [22]: 17.2%
viability, T/C [23]: 16.1%
viability, T/C [24]: 13.9%
viability, T/C [25]: 51.8%
viability, T/C [26]: 28.1%
viability, T/C [27]: 18.7%
viability, T/C [28]: 15.4%
viability, T/C [29]: 14.5%
viability, T/C [30]: 13.2%
viability, T/C [31]: 50%
viability, T/C [32]: 24.5%
viability, T/C [33]: 18.6%
viability, T/C [34]: 16%
viability, T/C [35]: 13.3%
viability, T/C [36]: 11.2%

CC(CO)NC(=O)c1cc(-c2ccc(Cl)cc2)nn(-c2cnn(C)c2)c1=O (stereo unspecified) + CN1CCN(c2cc(C(=O)Nc3cc4cc(-c5cnn(C)c5)ccc4cn3)ccn2)CC1
IC50 (second compound 0.0316 µM): > 10000 nM
IC50 (second compound 0.1 µM): > 10000 nM
IC50 (second compound 0.316 µM): > 10000 nM
IC50 (second compound 1 µM): < 31.6 nM
IC50 (second compound 3.16 µM): < 31.6 nM
IC50 (second compound 10 µM): < 31.6 nM
viability, T/C [1]: 91.7%
viability, T/C [2]: 106%
viability, T/C [3]: 99.8%
viability, T/C [4]: 105%
viability, T/C [5]: 104%
viability, T/C [6]: 101%
viability, T/C [7]: 114%
viability, T/C [8]: 116%
viability, T/C [9]: 108%
viability, T/C [10]: 116%
viability, T/C [11]: 105%
viability, T/C [12]: 99.3%
viability, T/C [13]: 87.2%
viability, T/C [14]: 87.9%
viability, T/C [15]: 91%
viability, T/C [16]: 82.5%
viability, T/C [17]: 78.1%
viability, T/C [18]: 79.1%
viability, T/C [19]: 1.07%
viability, T/C [20]: 2.15%
viability, T/C [21]: 1.7%
viability, T/C [22]: 1.69%
viability, T/C [23]: 1.72%
viability, T/C [24]: 2.66%
viability, T/C [25]: 2.09%
viability, T/C [26]: 1.46%
viability, T/C [27]: 1.34%
viability, T/C [28]: 1.32%
viability, T/C [29]: 1.45%
viability, T/C [30]: 3.08%
viability, T/C [31]: 1.44%
viability, T/C [32]: 4.18%
viability, T/C [33]: 1.35%
viability, T/C [34]: 1.26%
viability, T/C [35]: 2.31%
viability, T/C [36]: 1.01%

From PubChem BioAssay AID2060617 (Molecular Pharmacology Branch, DTP, NCI, 2025)
